From patent US20260138958A1, “SUBSTITUTED N-PHENYLURACILS AND SALTS THEREOF, AND USE THEREOF AS HERBICIDAL ACTIVE SUBSTANCES” (Bayer Aktiengesellschaft, priority 2022, published 2026)

How the values were obtained:
Type in all cases: in vivo
[1] = system: Polygonum convolvulus (POLCO); assay: Post-emergence herbicidal action, greenhouse pot test
Method in brief: (§1)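 Post-em greenhouse pots, sandy loam; one-leaf stage (2–3 wk after sowing); WP/EC spray, aq. suspension/emulsion + 0.5% additive, 600 l/ha; optimum conditions ~3 wk; visual % activity vs untreated (100% = dead).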

[2] = system: Alopecurus myosuroides (ALOMY); assay: as above
Method in brief: as §1

Bassia scoparia (KCHSC) = assay: as above
Method in brief: as §1

[3] = system: Echinochloa crus-galli (ECHCG); assay: as above
Method in brief: as §1

Veronica persica (VERPE) = assay: as above
Method in brief: as §1

[4] = system: Tripleurospermum inodorum (MATIN); assay: as above; conditions: 20 g/ha
Method in brief: as §1

Setaria viridis (SETVI) = assay: as above
Method in brief: as §1

[5] = system: Abutilon theophrasti (ABUTH); assay: as above
Method in brief: as §1

[6] = system: Pharbitis purpurea (PHBPU); assay: as above
Method in brief: as §1

[7] = system: Digitaria sanguinalis (DIGSA); assay: as above
Method in brief: as §1

Viola tricolor (VIOTR) = assay: as above
Method in brief: as §1

[8] = system: Amaranthus retroflexus (AMARE); assay: as above
Method in brief: as §1

crop plants = assay: Post-emergence crop plant compatibility, summary statements over several crops; conditions: 5 g or less per hectare, ORYSA, ZEAMX, TRZAS
Protocol: (§2) Seeds of monocotyledonous and dicotyledonous weeds and crop plants were placed in sandy loam in plastic or wood-fibre pots, covered with soil and cultivated in a greenhouse under controlled growth conditions. 2 to 3 weeks after sowing, the test plants were treated at the one-leaf stage. The compounds of the invention, formulated in the form of wettable powders (WP) or as emulsion concentrates (EC), were then sprayed onto the green parts of the plants as aqueous suspension or emulsion with addition of 0.5% additive at a water application rate of 600 l/ha (converted). After the test plants had been kept in the greenhouse under optimum growth conditions for about 3 weeks, the activity of the preparations was rated visually in comparison to untreated controls. For example, 100% activity=the plants have died, 0% activity=like control plants.
The observed effects on selected crop plants are reported here in comparison to the untreated controls (values in %).

harmful plants = assay: Post-emergence herbicidal action, summary statements over several weeds; conditions: 20 g or less per hectare, ALOMY, ECHCG, AVEFA, VERPE
Protocol: as §2

Zea mays (ZEAMX) = assay: Post-emergence crop plant compatibility, greenhouse pot test; conditions: Zea mays, in vivo
Method in brief: (§3)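 Crops grown in sandy loam in the greenhouse were sprayed post-emergence at the one-leaf stage, 2–3 weeks after sowing, with WP or EC formulations plus 0.5% additive at 600 l/ha water. Damage was rated visually after about 3 weeks against untreated controls (0% = like control, 100% = dead).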

[9] = system: Triticum aestivum (TRZAS); assay: as above
Method in brief: as §3

Lolium rigidum (LOLRI) = assay: Post-emergence herbicidal action, greenhouse pot test
Method in brief: as §1

Glycine max (GLXMA) = assay: Post-emergence crop plant compatibility, greenhouse pot test; conditions: crop plant, post-emergence, 1.25 g/ha
Method in brief: as §3

Cn1c(C(F)(F)F)cc(=O)n(-c2cc(Oc3ccccc3OCC(=O)OCC3CCCCCC3)c(Cl)cc2F)c1=O [I.7-16]
80%: Post-emergence effect at 1.25 g/ha against VERPE in % (Veronica persica (VERPE)) | Post-emergence effect at 1.25 g/ha against ABUTH in % [5] | Post-emergence effect at 1.25 g/ha against PHBPU in % [6]
100%: pest or weed control at 5 g/ha ([1]; Fallopia convolvulus, 504 h, 5 g/ha, read-out: Post-emergence effect at 5 g/ha against POLCO in %) | pest or weed control at 20 g/ha ([1]; Fallopia convolvulus, 504 h, 20 g/ha, read-out: Post-emergence effect at 20 g/ha against POLCO in %) | pest or weed control at 20 g/ha ([2]; Alopecurus myosuroides, 504 h, 20 g/ha, read-out: Post-emergence effect at 20 g/ha against ALOMY in %) | Post-emergence effect at 1.25 g/ha against KCHSC in % (Bassia scoparia (KCHSC); 1.25 g/ha) | Post-emergence effect at 5 g/ha against KCHSC in % (Bassia scoparia (KCHSC)) | Post-emergence effect at 20 g/ha against KCHSC in % (Bassia scoparia (KCHSC)) | Post-emergence effect at 1.25 g/ha against ECHCG in % [3] | Post-emergence effect at 5 g/ha against ECHCG in % [3] | pest or weed control at 20 g/ha ([3]; Echinochloa crus-galli, 504 h, 20 g/ha, read-out: Post-emergence effect at 20 g/ha against ECHCG in %) | ECHCG (efficacy in %) ([3]; Table B5 comparison, application rate 1.25 g/ha) | pest or weed control at 5 g/ha (Veronica persica (VERPE); Veronica persica, 504 h, 5 g/ha, read-out: Post-emergence effect at 5 g/ha against VERPE in %) | pest or weed control at 20 g/ha (Veronica persica (VERPE); Veronica persica, 504 h, 20 g/ha, read-out: Post-emergence effect at 20 g/ha against VERPE in %) | Post-emergence effect at 1.25 g/ha against SETVI in % (Setaria viridis (SETVI)) | pest or weed control at 5 g/ha (Setaria viridis (SETVI); Setaria viridis, 504 h, 5 g/ha, read-out: Post-emergence effect at 5 g/ha against SETVI in %) | pest or weed control at 20 g/ha (Setaria viridis (SETVI); Setaria viridis, 504 h, 20 g/ha, read-out: Post-emergence effect at 20 g/ha against SETVI in %) | pest or weed control at 5 g/ha ([5]; Abutilon theophrasti, 504 h, 5 g/ha, read-out: Post-emergence effect at 5 g/ha against ABUTH in %) | pest or weed control at 20 g/ha ([5]; Abutilon theophrasti, 504 h, 20 g/ha, read-out: Post-emergence effect at 20 g/ha against ABUTH in %) | pest or weed control at 5 g/ha ([6]; Ipomoea purpurea, 504 h, 5 g/ha, read-out: Post-emergence effect at 5 g/ha against PHBPU in %) | pest or weed control at 20 g/ha ([6]; Ipomoea purpurea, 504 h, 20 g/ha, read-out: Post-emergence effect at 20 g/ha against PHBPU in %) | Post-emergence effect at 5 g/ha against DIGSA in % [7] | Post-emergence effect at 20 g/ha against DIGSA in % [7] | Post-emergence effect at 1.25 g/ha against VIOTR in % (Viola tricolor (VIOTR)) | Post-emergence effect at 5 g/ha against VIOTR in % (Viola tricolor (VIOTR)) | pest or weed control at 20 g/ha (Viola tricolor (VIOTR); Viola tricolor, 504 h, 20 g/ha, read-out: Post-emergence effect at 20 g/ha against VIOTR in %) | pest or weed control at 1.25 g/ha ([8]; Amaranthus retroflexus, 504 h, 1.25 g/ha, read-out: Post-emergence effect at 1.25 g/ha against AMARE in %) | pest or weed control at 5 g/ha ([8]; Amaranthus retroflexus, 504 h, 5 g/ha, read-out: Post-emergence effect at 5 g/ha against AMARE in %) | pest or weed control at 20 g/ha ([8]; Amaranthus retroflexus, 504 h, 20 g/ha, read-out: Post-emergence effect at 20 g/ha against AMARE in %)
90%: Post-emergence effect at 5 g/ha against ALOMY in % ([2]; 5 g/ha) | pest or weed control at 20 g/ha ([4]; Tripleurospermum inodorum, 504 h, read-out: Post-emergence effect at 20 g/ha against MATIN in %) | Post-emergence effect at 1.25 g/ha against DIGSA in % ([7]; 1.25 g/ha)
distinctly improved herbicidal efficacy: herbicidal efficacy by comparison with a-27, a-29 or a generically encompassed structure (WO2002/098227) (harmful plants)
distinctly improved compatibility: compatibility with crop plants by comparison with a-27, a-29 or a generically encompassed structure (WO2002/098227) (crop plants)
20%: Post-emergence effect at 1.25 g/ha against ZEAMX in % (Zea mays (ZEAMX)) | Post-emergence effect at 20 g/ha against TRZAS in % ([9]; Triticum aestivum, in vivo)
10%: Post-emergence effect at 1.25 g/ha against TRZAS in % ([9]; Triticum aestivum, in vivo)

CC(OC(=O)COc1ccccc1Oc1cc(-n2c(=O)cc(C(F)(F)F)n(C)c2=O)c(F)cc1Cl)C1CCCC1 (stereo not shown) [I.7-13]
100%: Post-emergence effect at 5 g/ha against POLCO in % ([1]; 5 g/ha) | Post-emergence effect at 20 g/ha against POLCO in % ([1]; 20 g/ha) | Post-emergence effect at 5 g/ha against KCHSC in % (Bassia scoparia (KCHSC)) | Post-emergence effect at 20 g/ha against KCHSC in % (Bassia scoparia (KCHSC)) | Post-emergence effect at 20 g/ha against ECHCG in % ([3]; 20 g/ha) | Post-emergence effect at 1.25 g/ha against VERPE in % (Veronica persica (VERPE)) | Post-emergence effect at 5 g/ha against VERPE in % (Veronica persica (VERPE); 5 g/ha) | Post-emergence effect at 20 g/ha against VERPE in % (Veronica persica (VERPE); 20 g/ha) | Post-emergence effect at 1.25 g/ha against SETVI in % (Setaria viridis (SETVI)) | Post-emergence effect at 5 g/ha against SETVI in % (Setaria viridis (SETVI); 5 g/ha) | Post-emergence effect at 20 g/ha against SETVI in % (Setaria viridis (SETVI); 20 g/ha) | Post-emergence effect at 5 g/ha against ABUTH in % ([5]; 5 g/ha) | Post-emergence effect at 20 g/ha against ABUTH in % ([5]; 20 g/ha) | Post-emergence effect at 1.25 g/ha against PHBPU in % [6] | Post-emergence effect at 5 g/ha against PHBPU in % ([6]; 5 g/ha) | Post-emergence effect at 20 g/ha against PHBPU in % ([6]; 20 g/ha) | Post-emergence effect at 5 g/ha against DIGSA in % [7] | Post-emergence effect at 20 g/ha against DIGSA in % [7] | Post-emergence effect at 5 g/ha against VIOTR in % (Viola tricolor (VIOTR)) | Post-emergence effect at 20 g/ha against VIOTR in % (Viola tricolor (VIOTR); 20 g/ha) | Post-emergence effect at 1.25 g/ha against AMARE in % ([8]; 1.25 g/ha) | Post-emergence effect at 5 g/ha against AMARE in % ([8]; 5 g/ha) | Post-emergence effect at 20 g/ha against AMARE in % ([8]; 20 g/ha)
20%: Post-emergence effect at 1.25 g/ha against TRZAS in % ([9]; crop plant, post-emergence, 1.25 g/ha) | Post-emergence effect at 1.25 g/ha against GLXMA in % (Glycine max (GLXMA))
80%: Post-emergence effect at 20 g/ha against ALOMY in % ([2]; 20 g/ha) | Post-emergence effect at 1.25 g/ha against ECHCG in % [3] | Post-emergence effect at 20 g/ha against MATIN in % [4] | Post-emergence effect at 1.25 g/ha against ABUTH in % [5] | Post-emergence effect at 20 g/ha against LOLRI in % (Lolium rigidum (LOLRI))
90%: Post-emergence effect at 5 g/ha against ECHCG in % [3] | Post-emergence effect at 1.25 g/ha against VIOTR in % (Viola tricolor (VIOTR))
